Source: patent US9975854B2, “Benzomorphan analogs and use thereof” (Purdue Pharma L.P., priority 2014, dated 2018)
Like-named read-outs stand apart in the source and are kept apart here.

Target: μ-opioid receptor (Homo sapiens (Human), UniProt P35372)
Test: μ-opioid receptor [35S]GTPγS functional assay, HEK-293 or CHO cells
Format: biochemical
Settings: HEK-293 or CHO cells; for EC50: read-out: GTPγS μ EC50; for Emax: relative to DAMGO
Description: [^35S]GTPγS functional assays were conducted using freshly thawed μ-receptor membranes prepared in-house from a cell line expressing recombinant opioid receptor in a HEK-293, CHO or U-2 OS cell background, or purchased from a commercial source (Perkin Elmer, Shelton, Conn.; or DiscovRx, Fremont, Calif.). Assay reactions were prepared by sequentially adding the following reagents to binding buffer (100 mM NaCl, 10 mM MgCl2, 20 mM HEPES, pH 7.4) on ice (final concentrations indicated): membrane protein (0.026 mg/mL), saponin ([…]), GDP ([…]) and [^35S]GTPγS (0.20 nM; Perkin Elmer, Shelton, Conn.). The prepared membrane solution (190 μl/well) was transferred to 96-shallow well polypropylene plates containing 10 μl of 20× concentrated stock solutions of the agonist [D-Ala^2, N-methyl-Phe^4 Gly-ol^5]-enkephalin (DAMGO) prepared in dimethyl sulfoxide (DMSO). Plates were incubated for 30 min at about 25° C. with shaking. Reactions were terminated by rapid filtration onto 96-well Unifilter GF/B filter plates (Perkin Elmer, Shelton, Conn.) using a 96-well tissue harvester (Perkin Elmer, Shelton, Conn.) followed by three filtration washes with 200 μl of ice-cold wash buffer (10 mM NaH2PO4, 10 mM Na2HPO4, pH 7.4). Filter plates were subsequently dried at 50° C. for 2-3 hr. BetaScint scintillation cocktail (Perkin Elmer, Shelton, Conn.) was added (50 μl/well) and plates were counted using a Packard Top-Count for 1 min/well. Data were analyzed using the sigmoidal dose-response curve fitting functions in GraphPad PRISM v. 3.0, or an in-house function for non-linear, sigmoidal dose-response curve-fitting.
μ GTP EC50 is the concentration of a compound providing 50% of the maximal response for the compound at a μ-opioid receptor.
μ GTP Emax (%) is the maximal effect elicited by a compound relative to the effect elicited by DAMGO, a standard p agonist. Generally, the μ GTP Emax (%) value measures the efficacy of a compound to treat or prevent pain or other Conditions.
In TABLE 4, activity response of certain Compounds of the Invention to the μ- and κ-opioid receptors was determined as described above for functional assays using HEK-293 or CHO cells.

SMILES | EC50 [µM] | Emax [%] | EC50 (bound given in uM) [µM]
CN1CC[C@@]2(C)c3cc(O)ccc3C[C@@H]1[C@@H]2N(C)CC1CCN(C(=O)C(C)(C)C)CC1 [Compound 52, 1-(4-((((2R,6S,11R)-8-hydroxy-3,6-dimethyl-1,2,3,4,5,6-hexahydro-2,6-methanobenzo[d]azocin-11-yl)(methyl)amino)methyl)piperidin-1-yl)-2,2-dimethylpropan-1-one] | 0.00122 ± 0.0002 | 31.3 ± 0.88 | –
CN1CC[C@@]2(C)c3cc(O)ccc3C[C@@H]1[C@@H]2NCCC1CCCCC1 [Compound 16, (2R,6S,11R)-11-((2-cyclohexylethyl)amino)-3,6-dimethyl-1,2,3,4,5,6-hexahydro-2,6-methanobenzo[d]azocin-8-ol] | 1.27 ± 0.0901 | 77.3 ± 3.84 | –
CN1CC[C@@]2(C)c3cc(O)ccc3C[C@@H]1[C@H]2N(C)C(=O)Cc1ccc(S(C)(=O)=O)cc1 [Compound 35, N-((2R,6S,11S)-8-hydroxy-3,6-dimethyl-1,2,3,4,5,6-hexahydro-2,6-methanobenzo[d]azocin-11-yl)-N-methyl-2-(4-(methylsulfonyl)phenyl)acetamide] | – | 2 ± 0.41 | > 20
CN1CC[C@@]2(C)c3cc(O)ccc3C[C@@H]1[C@H]2NCCCc1ccccc1 [Compound 109, (2R,6S,11S)-3,6-dimethyl-11-((3-phenylpropyl)amino)-1,2,3,4,5,6-hexahydro-2,6-methanobenzo-[d]azocin-8-ol] | 0.649 ± 0.114 | 59.6 ± 2.5 | –
CN1CC[C@]2(C)c3cc(O)ccc3CC1[C@@H]2C(=O)N1CCCCC1 [Compound 106, ((6S,11R)-8-hydroxy-3,6-dimethyl-1,2,3,4,5,6-hexahydro-2,6-methanobenzo[d]azocin-11-yl)(piperidin-1-yl)methanone] | 4.09 ± 0.334 | 49 ± 1.73 | –
CN1CC[C@@]2(C)c3cc(O)ccc3C[C@@H]1[C@@H]2NCC1(O)CCCCC1 [Compound 14, (2R,6S,11R)-11-(((1-hydroxycyclohexyl)methyl)amino)-3,6-dimethyl-1,2,3,4,5,6-hexahydro-2,6-methanobenzo[d]azocin-8-ol] | 8.69 ± 2.27 | 15 ± 1.58 | –
CN1CC[C@@]2(C)c3cc(O)ccc3C[C@@H]1[C@H]2N(CCc1ccc(F)cc1)CC(=O)O [Compound 72, N-(4-fluorophenethyl)-N-((2R,6S,11S)-8-hydroxy-3,6-dimethyl-1,2,3,4,5,6-hexahydro-2,6-methanobenzo[d]azocin-11-yl)glycine] | 0.338 ± 0.0609 | 101 ± 2.91 | –
CCN(C(=O)Nc1ccc(C#N)cc1)[C@@H]1[C@H]2Cc3ccc(O)cc3[C@]1(C)CCN2C [Compound 93, 3-(4-cyanophenyl)-1-ethyl-1-((2R,6S,11 S)-8-hydroxy-3,6-dimethyl-1,2,3,4,5,6-hexahydro-2,6-methanobenzo[d]azocin-11-yl)urea] | 2.29 ± 0.404 | 32 ± 2.48 | –
CN1CCC2(C)c3cc(O)ccc3C[C@@H]1C2NC(=O)Cc1ccsc1 (stereo in doubt) [Compound 31, N-((2R,6S,11S)-8-hydroxy-3,6-dimethyl-1,2,3,4,5,6-hexahydro-2,6-methanobenzo[d]azocin-11-yl)-2-(thiophen-3-yl)acetamide] | – | 1 | > 20
CN1CC[C@@]2(C)c3cc(C(N)=O)ccc3C[C@@H]1[C@@H]2N(C)CCc1ccccc1 [Compound 123, (2R,6S,11R)-3,6-dimethyl-11-(methyl(phenethyl)amino)-1,2,3,4,5,6-hexahydro-2,6-methanobenzo[d]azocine-8-carboxamide] | 0.0233 ± 0.00447 | 97.4 ± 0.2 | –
CN1CC[C@@]2(C)c3cc(O)ccc3C[C@@H]1[C@@H]2NC(=O)Cc1ccc(S(C)(=O)=O)cc1 [Compound 33, N-((2R,6S,11R)-8-hydroxy-3,6-dimethyl-1,2,3,4,5,6-hexahydro-2,6-methanobenzo[d]azocin-11-yl)-2-(4-(methylsulfonyl)phenyl)acetamide] | 5.28 ± 1.26 | 13 | –
